Laboratory results reported in patent US11884686B2, “Chelate compounds” (priority 2016, dated 2024).

Assays:
[1] = In vivo 54Mn biodistribution study in rats; details: rat; for % ID retained activity, Brain / % ID retained activity, Bladder / % ID retained activity, Blood / % ID retained activity, Heart / % ID retained activity, Kidney / % ID retained activity, Liver / % ID retained activity, Lungs / % ID retained activity, Muscle / % ID retained activity, Olfactory Bulb / % ID retained activity, Skin / % ID retained activity, Spleen / % ID retained activity, Tibia/Fibula / % ID retained activity, Femur / % ID retained activity, Pituitary Gland: 7 days post single iv 0.62 mmol/kg, LoD 0.002% ID (Prior Art, Chelate 4), 0.005% ID (Chelate 3); for % ID retained activity, Brain: ~30 μCi 54Mn; for in vivo stability from biodistribution profile: 7 days post single iv administration
Protocol: ^54Mn labeled chelates for biodistribution studies were prepared using the following method. To a 3 mL glass vial fitted with a magnetic stir bar was added the respective manganese containing chelate (1 mg) and 1.0 M ammonium formate, pH=4 (0.5 mL) (pH=5 for prior art Mn Chelate). ^54MnCl2 in 1.0 M HCl (˜500 μCi) was then added and the resulting solution was heated at 40° C. for 16 h. The resulting solution was purified via preparative HPLC to remove unchelated Mn. The radioactive fraction was collected and evaporated to dryness in vacuo. The radioactive residue was taken up in water containing non-radioactive Mn chelate (0.310 M) such that ˜30 μCi of radioactivity was formulated in a dose of 0.620 mmol Mn/kg with an injection volume of 2 mL/kg.
The experimental protocol conformed to the Guide for the Care and Use of Laboratory Animals and was approved by the IACUC at General Electric Global Research (Niskayuna, NY). Female Sprague-Dawley rats (130-150 g; Charles River Laboratories; Massachusetts; USA) were housed in standard cages, provided with ad libitum access to standard commercial food and water, and were maintained on an alternating 12-hr light-dark cycle in rooms with controlled temperature and humidity. Prior to injection of ^54Mn labelled chelates, rats were anesthetized via inhaled 3% Isoflurane (Piramal, NDC 66794-013-25; EZ-Anesthesia EZ700 Isoflurane Vaporizer, S/N 107). The injection site was prepped with alcohol wipes and a temporary 27 Ga catheter (Surflo SROX2419V) was placed in a tail vein. 30 μCi (0.74 MBq) of ^54Mn labelled chelate formulated with respective non-radioactive Mn(II) based chelate was dosed at 0.620 mmol non-radioactive Mn chelate/kg at an injection volume of 2 m L/kg was injected at a rate of 1 mL/min. Following injection animals were individually housed in wire bottom cages lined with filter paper until first urine void was collected. The rats were then cohoused in standard long term caging. 7 days post injection, the animals were sacrificed by CO2 immersion and organs and tissues of interest were removed and assayed for radioactivity using a Wizard 2480 gamma counter (Perkin Elmer, Beaconsfield, UK).
Naïve rats (Charles River Laboratories; Massachusetts; USA) received a single dose of 0.620 mmol/kg (approximately 30 μCi, 0.740 MBq) of test item via tail vein by injection. Additionally, one group of animals received osmolality matched saline (concentrated NaCl for injection: APP Pharmaceuticals part #NDC 63323-187-30 Lot #6008656 mixed with Sterile Water for Injection: Hospira part #NDC 0409-7990-09 Lot #49-396-DKas) as negative control (Table 1). After sacrifice, the organs and tissues were removed and assayed for residual radioactivity (i.e. ^54Mn organ retention) 7 days post single administration.

[2] = Water solubility of Mn(II) based chelates; assay type: physicochemical; details: thermodynamic from solid, 25° C.
Protocol: The solubility of Mn(II) based chelates was confirmed by dissolving purified Mn(II) based chelates ( 99% purity) in a prescribed volume of solvent (Millipore water 18.2 MegaOhm from a Millipore BioCell Benchtop unit) to provide a solution of given volume. Solutions were visually inspected for homogeneity and filtered through a 0.45 um PTFE filter membrane if necessary. The assessment was carried out at 25° C. Final sample concentrations were confirmed by determination of final Mn(II) concentration via ICP-MS (Spectro Arcos FHS[…] 10003910 or S/N 12006120).

[3] = In vitro proton relaxivity in human serum; assay type: physicochemical; details: 60 MHz, 40° C.
Protocol: Both the longitudinal and transverse relaxation times were measured in human serum (BioreclamationIVT, Cat #HMSRM-M) to reflect the efficiency of the Mn(II) based chelates in an environment close to physiological. The relaxivity assessment was carried out at a concentration ranging from 5 to 0 mM Mn(II), at 40° C. using a Minispec Mq benchtop NMR relaxometer (Bruker Instruments, Rheinstetten, Germany) operating at 60 MHz (1.4 T) with an inversion recovery pulse sequence. The longitudinal and transverse relaxivities of the complexes (e.g., r1 and r2 respectively) were calculated by plotting the reciprocal of their relaxation time versus the manganese concentration as determined via ICP-MS (Spectro Arcos FHS12, S/N 10003910 or S/N 12006120) for each Mn(II) based chelates. The dependence of T1 by B0 (i.e., magnetic field) applied was assessed via the acquisition of ^1H Nuclear Magnetic Relaxation Dispersion (NMRD) profiles. A dedicated Stelar SMARTracer Fast Field Cycling relaxometer (0.01-10 MHz) and a Bruker WP80 NMR electromagnet adapted to variable field measurements (20-80 MHz) and controlled by a SMARTracer PC-NMR console was used to record the ^1H NMRD profiles over an extended range of Larmor Frequencies (from 0.01 to 80 MHz). The temperature was monitored by a VTC91 temperature control unit and maintained by a gas flow. The temperature was determined by previous calibration with a Pt resistance temperature probe. High field relaxivities were measured on a Bruker AVANCE NMR spectrometer at 400 MHz. A total of 25 data points per NMRD profile were recorded at each temperature, pH 6.9 and with a manganese concentration in the samples of 6.99, 6.78 and 4.45 mM for the prior art Mn Chelate, Mn Chelate 4 and Mn Chelate 3, respectively. The concentration of Mn(II) in all samples was verified by Bulk Magnetic Susceptibility (BMS) measurements. Relaxivity was computed by subtracting the relaxation rate of the medium (distilled water) from the relaxation rate of the Mn(II) complex solution at each field strength and dividing the difference by the manganese concentration verified by BMS measurements.
The linear fit (R2>0.99 for all compounds examined) of 1/T1 and 1/T2 as a function of Mn concentration generated the r1 or r2 values reported in Table 4 for human serum.

SMILES | % ID retained activity, Brain [1] | % ID retained activity, Bladder [1] | % ID retained activity, Blood [1] | % ID retained activity, Heart [1] | % ID retained activity, Kidney [1] [% ID] | % ID retained activity, Liver [1] [% ID] | % ID retained activity, Lungs [1] | % ID retained activity, Muscle [1] | % ID retained activity, Olfactory Bulb [1] | % ID retained activity, Skin [1] | % ID retained activity, Spleen [1] | % ID retained activity, Tibia/Fibula [1] | in vivo stability from biodistribution profile [1] | solubility [2] [mM] | r1 (longitudinal relaxivity) [3] [mM⁻¹ s⁻¹] | % ID retained activity, Femur [1] | % ID retained activity, Pituitary Gland [1]
CN(C[C@H](O)[C@@H](O)[C@H](O)[C@H](O)CO)C(=O)CCCN1CCN2Cc3cccc(n3)CN(CC1)C(CCC(=O)N(C)C[C@H](O)[C@@H](O)[C@H](O)[C@H](O)CO)C(=O)[O][Mn][O]C(=O)C2CCC(=O)N(C)C[C@H](O)[C@@H](O)[C@H](O)[C@H](O)CO (some centres unmarked) [Mn Chelate 3] | within endogenous level variability and LOD | ≤LOD | ≤LOD | ≤LOD | 0.026 ± 0.005 | 0.091 ± 0.017 | ≤LOD | ≤LOD | ≤LOD | ≤LOD | ≤LOD | ≤LOD | improved stability compared to the prior art Mn Chelate | > 500 | 8.0 |  | 
CN1CCN2Cc3cccc(n3)CN(CC1)C(CCC(=O)N(C)C[C@H](O)[C@@H](O)[C@H](O)[C@H](O)CO)C(=O)[O][Mn][O]C(=O)C2CCC(=O)N(C)C[C@H](O)[C@@H](O)[C@H](O)[C@H](O)CO (some centres unmarked) [Mn Chelate 4] |  | ≤LOD | ≤LOD | ≤LOD | 0.038 ± 0.017 | 0.075 ± 0.011 | ≤LOD | ≤LOD | ≤LOD | ≤LOD | ≤LOD | ≤LOD | improved stability compared to the prior art Mn Chelate | > 500 | 5.3 | ≤LOD | ≤LOD
CN1CCN2CC(=O)[O][Mn][O]C(=O)CN(CC1)Cc1cccc(n1)C2 [Prior Art Mn Chelate, reference compound] | 0.007 ± 0.002% ID | ≤LOD | ≤LOD | ≤LOD | 0.012 ± 0.002 | 0.072 ± 0.017 | ≤LOD | ≤LOD | ≤LOD | ≤LOD | ≤LOD | 0.002 ± 0.000% ID |  | > 500 | 3.0 | 0.003 ± 0.001% ID | ≤LOD
